In brackets after ≈: the same amount, converted by molar mass.
What was measured:
[1] = system: E. coli 25922; experiment: Experimental systemic septicaemia in the mouse; format: in vivo; conditions: Escherichia coli, sc, 96 h; E. coli 25922, albino mice, s.c. 1 and 3 hours after infection, survival after 4 days; read-out: ED50
Procedure, shortened: (§1)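 ED50 in mg/kg s.c. is the Probit-derived dose protecting half the mice, judged on survival 4 days after i.p. challenge (about 5-100× 48 h LD50) in 16-20 g albino mice, 5 per group. Dosing was s.c. in 2% Tween 80 at 1 and 3 h, plus 5 h for P. aeruginosa.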

[2] = system: Pseudomonas aeruginosa BA; experiment: Experimental systemic septicaemia in the mouse; format: in vivo; conditions: sc, 96 h, P. aeruginosa BA, albino mice, s.c. 1, 3 and 5 hours after infection, survival after 4 days, read-out: ED50
Procedure, shortened: as §1

[3] = system: S. aureus Schoch; experiment: Experimental systemic septicaemia in the mouse; format: in vivo; conditions: Staphylococcus aureus, sc, 96 h; S. aureus Schoch, albino mice, s.c. 1 and 3 hours after infection, survival after 4 days; read-out: ED50
Procedure, shortened: as §1

[4] = system: E. coli 25922; experiment: Minimum inhibitory concentration in vitro, agar dilution method; format: cell-based; conditions: Escherichia coli; E. coli 25922, agar dilution; read-out: MIC
Description: (§2) 1. Minimum Inhibitory Concentration in vitro
(§3) The activities ascertained, minimum inhibitory concentration (MIC) in μg/ml, are compiled in Table 1 hereinafter: […]

[5] = system: P. aeruginosa BA; experiment: as above; format: cell-based; conditions: Pseudomonas aeruginosa; P. aeruginosa BA, agar dilution; read-out: MIC
Description: as §2, §3

[6] = system: E. cloacae 908R; experiment: as above; format: cell-based; conditions: Enterobacter cloacae; E. cloacae 908R, agar dilution; read-out: MIC
Description: as §2, §3

[7] = system: S. marcescens 69438; experiment: as above; format: cell-based; conditions: Serratia marcescens; S. marcescens 69438, agar dilution; read-out: MIC
Description: as §2, §3

[8] = system: P. vulgaris 1028; experiment: as above; format: cell-based; conditions: Proteus vulgaris; P. vulgaris 1028, agar dilution; read-out: MIC
Description: as §2, §3

[9] = system: K. oxytoca 1082; experiment: as above; format: cell-based; conditions: Klebsiella oxytoca; K. oxytoca 1082, agar dilution; read-out: MIC
Description: as §2, §3

[10] = system: P. aeruginosa 27853; experiment: as above; format: cell-based; conditions: Pseudomonas aeruginosa; P. aeruginosa 27853, agar dilution; read-out: MIC
Description: as §2, §3

[11] = system: E. cloacae P99; experiment: as above; format: cell-based; conditions: Enterobacter cloacae
Description: as §2, §3

[12] = system: S. pyogenes 15; experiment: as above; format: cell-based; conditions: Streptococcus pyogenes; S. pyogenes 15, agar dilution; read-out: MIC
Description: as §2, §3

[13] = system: S. pneumoniae BA; experiment: as above; format: cell-based; conditions: Streptococcus pneumoniae; S. pneumoniae BA, agar dilution; read-out: MIC
Description: as §2, §3

[14] = system: P. mirabilis 2117; experiment: as above; format: cell-based; conditions: Proteus mirabilis; P. mirabilis 2117, agar dilution; read-out: MIC
Description: as §2, §3

[15] = system: K. pneumoniae 418; experiment: as above; format: cell-based; conditions: Klebsiella pneumoniae; K. pneumoniae 418, agar dilution; read-out: MIC
Description: as §2, §3

[16] = system: C. freundii 902; experiment: as above; format: cell-based; conditions: Citrobacter freundii; C. freundii 902, agar dilution; read-out: MIC
Description: as §2, §3

[17] = system: P. aeruginosa 799/WT; experiment: as above; format: cell-based; conditions: Pseudomonas aeruginosa; P. aeruginosa 799/WT, agar dilution; read-out: MIC
Description: as §2, §3

[18] = system: P. aeruginosa 799/61; experiment: as above; format: cell-based; conditions: Pseudomonas aeruginosa; P. aeruginosa 799/61, agar dilution; read-out: MIC
Description: as §2, §3

[19] = system: S. aureus 6538; experiment: as above; format: cell-based; conditions: Staphylococcus aureus; S. aureus 6538, agar dilution; read-out: MIC
Description: as §2, §3

[20] = system: E. cloacae 908SSi; experiment: as above; format: cell-based; conditions: Enterobacter cloacae; E. cloacae 908SSi, agar dilution; read-out: MIC
Description: as §2, §3

[21] = system: P. aeruginosa MK1184; experiment: as above; format: cell-based; conditions: Pseudomonas aeruginosa; P. aeruginosa MK1184, agar dilution; read-out: MIC
Description: as §2, §3

| Structure (SMILES) | ED50 [1] [mg/kg] | ED50 [2] [mg/kg] | ED50 [3] [mg/kg] | MIC [4] [µg/mL] | MIC [5] [µg/mL] | MIC [6] [µg/mL] | MIC [7] [µg/mL] | MIC [8] [µg/mL] | MIC [9] [µg/mL] | MIC [10] [µg/mL] | MIC [11] [µg/mL] | MIC [12] [µg/mL] | MIC [14] [µg/mL] | MIC [15] [µg/mL] | MIC [16] [µg/mL] | MIC [17] [µg/mL] | MIC [18] [µg/mL] | MIC [19] [µg/mL] | MIC [20] [µg/mL] | MIC [21] [µg/mL] | further results |
| --- | --- | --- | --- | --- | --- | --- | --- | --- | --- | --- | --- | --- | --- | --- | --- | --- | --- | --- | --- | --- | --- |
| Cc1cc(SCC2=C(C(=O)O)N3C(=O)[C@@H](NC(=O)/C(=N\OC(C)(C)C(=O)NNC(=O)c4ccc(O)c(O)c4)c4csc(N)n4)[C@H]3SC2)n2nc(COC(=O)c3ccc(O)c(O)c3)nc2n1 [Example 43] | 0.05 | 0.019 | 12 | < 0.1 | < 0.1 | 0.12 (≈ 0.126 µM) | 0.12 (≈ 0.126 µM) | 0.12 (≈ 0.126 µM) | < 0.1 | 0.25 (≈ 0.263 µM) | 0.12 (≈ 0.126 µM) | 8 (≈ 8.42 µM) | 0.12 (≈ 0.126 µM) | < 0.1 | < 0.1 | < 0.1 | < 0.1 | 16 (≈ 16.8 µM) | 2 (≈ 2.11 µM) | < 0.1 | MIC [13]: 4 µg/mL (≈ 4.21 µM) |
| Cc1cc(SCC2=C(C(=O)O)N3C(=O)[C@@H](NC(=O)/C(=N\OC(C)(C)C(=O)NNC(=O)c4ccc(O)c(O)c4)c4csc(N)n4)[C@H]3SC2)n2nc(CS(=O)(=O)c3ccc(O)c(O)c3)nc2n1 [Example 44] | < 0.05 | < 0.01 | > 12 | < 0.1 | < 0.1 | 1 (≈ 1.03 µM) | 0.25 (≈ 0.258 µM) | 0.25 (≈ 0.258 µM) | < 0.1 | 0.5 (≈ 0.515 µM) | – | 8 (≈ 8.25 µM) | 0.25 (≈ 0.258 µM) | < 0.1 | 0.25 (≈ 0.258 µM) | 0.12 (≈ 0.124 µM) | < 0.1 | 32 (≈ 33 µM) | 8 (≈ 8.25 µM) | 0.12 (≈ 0.124 µM) | MIC [13]: 1 µg/mL (≈ 1.03 µM) |
| Cc1cc(SCC2=C(C(=O)O)N3C(=O)[C@@H](NC(=O)/C(=N\OCc4ccc(O)c(O)c4)c4csc(N)n4)[C@H]3SC2)n2nc(CNS(=O)(=O)c3ccc(O)c(O)c3)nc2n1 [Example 4, (6R,7R)-7-[(Z)-2-(2-amino-4-thiazolyl)-2-[[(3,4-dihydroxybenzyl)oxy]imino]acetamido]-3-[[[2-[(3,4-dihydroxybenzenesulphonamido)methyl]-5-methyl-s-triazolo[1,5-a]pyrimidin-7-yl]thio]methyl]-8-oxo-5-thia-1-azabicyclo[4.2.0]oct-2-ene-2carboxylic acid] | < 0.1 | 0.12 | 3.1 | < 0.1 | < 0.1 | 1 (≈ 1.15 µM) | 0.12 (≈ 0.138 µM) | 1 (≈ 1.15 µM) | 16 (≈ 18.4 µM) | 0.5 (≈ 0.574 µM) | 32 (≈ 36.7 µM) | 0.25 (≈ 0.287 µM) | 0.25 (≈ 0.287 µM) | < 0.1 | < 0.1 | 0.25 (≈ 0.287 µM) | 0.12 (≈ 0.138 µM) | 4 (≈ 4.59 µM) | 4 (≈ 4.59 µM) | 0.25 (≈ 0.287 µM) | – |

Source: patent US5438052A, “Cephalosporin derivatives” (Hoffmann-La Roche Inc., priority 1991, dated 1995)
